According to patent publication US11859205B2, “Medium for culturing stem cells” (AJINOMOTO CO., INC., priority 2013, dated 2024):

Legend:
[1] = tested on: iPS cells; test: Viable iPS cell number with purified albumin re-carrying fatty acid (Example 4, FIG. 4); assay type: cell-based, human; conditions: fatty acid re-adsorbed to albumin, 1 week
Experimental: Proliferative effect of various test compounds on induced pluripotent stem cell (iPS cell) was evaluated. As the iPS cell, 201B7 strain purchased from iPS Academia Japan, Inc. was used. Cell culture was performed under conditions of 5% CO2/37° C. and using a culture vessel (Nippon Becton Dickinson Company, Ltd., Falconculture petri dish or Falconculture plate) coated with a basal membrane matrix.
Various test compounds were added at given concentrations to a medium of “E8” composition (disclosed in Nature Methods, 2011, 8, 424-429, which is incorporated herein by reference in its entirety) currently considered to be the minimum composition for cultivating human pluripotent stem cells, and used for culture, from which the effect was studied.
The solution was shaken at 37° C. for 7 hours, left standing at 4° C. overnight, and filtered with a 0.22 μm syringe filter. […] The mixture was added to a medium such that the final concentration of albumin was 2.6 g/L.
The final concentration in and the amount of addition to the medium are also the same.
Using the medium produced as mentioned above, the influence of each fatty acid on the proliferation of iPS cells was studied. A 6-well plate coated with a fragment containing an active domain of laminin 511 at 5 μg/well (iMatrix-511 (Nippi, Incorporated)) as a basal membrane matrix was used. iPS cells were single-cell seeded at 13,000 cells/well and cultured for 1 week. Y-27632 (NACALAI TESQUE, INC.: 08945-84) was added at a final concentration of 10 μM only to a medium to be used for seeding. As a positive control, iPS cells were cultured using an albumin free of re-adsorption of fatty acid, i.e., albumin after a fatty acid removal treatment.
The cells were detached from each well by TrypLE Select (Life Technologies: 12563-011), and the number of the viable cells was measured.

[2] = tested on: stem cells; conditions: WO 2013/006675; cited from earlier work
[3] = final concentration in medium 28 μM
[4] = final concentration in medium 57 μM

## CCCCC/C=C\C/C=C\C/C=C\C/C=C\CCCC(=O)O [arachidonic acid]
[1]; [3]
  effect on proliferation of iPS cells (number of viable cells): the cells died
[1]; [4]
  effect on proliferation of iPS cells (number of viable cells): the cells died

## CCCCC/C=C\C/C=C\CCCCCCCC(=O)O [linoleic acid]
[1]; [3]
  effect on proliferation of iPS cells (number of viable cells): markedly suppressed
[1]; [4]
  effect on proliferation of iPS cells (number of viable cells): the cells died

## CCCCCCCC(=O)O [octanoic acid]
[2]
  effect on culture of stem cells: harmful

## CCCCCCCC/C=C\CCCCCCCC(=O)O [oleic acid]
[1]; [3]
  effect on proliferation of iPS cells (number of viable cells): smaller than that of the positive control
[1]; [4]
  effect on proliferation of iPS cells (number of viable cells): smaller than that of the positive control

## CCCCCCCCCCCCCCCC(=O)O [palmitic acid]
[1]; [3]
  effect on proliferation of iPS cells (number of viable cells): the cells died
[1]; [4]
  effect on proliferation of iPS cells (number of viable cells): the cells died

## CCCCCCCCCCCCCCCCCC(=O)O [stearic acid]
[1]; [3]
  effect on proliferation of iPS cells (number of viable cells): the cells died
[1]; [4]
  effect on proliferation of iPS cells (number of viable cells): the cells died
